Consider 21 compounds from patent US12240862B2, “Inhibitors of peptidylarginine deiminases” (Gilead Sciences, Inc., priority 2020, dated 2025).

For this assay, the target named is T1, human PAD4 (Homo sapiens, UniProt Q9UM07).
T1 construct: human PAD4 (NM_012387), A2P663, was PCR amplified; His-SUMO (N, cleaved yes); made in house; host or cells: E. coli BL21(DE3)
In words: In vitro PAD4 BAEE biochemical assay. To be noted: human PAD4, BAEE substrate; 5 nM PAD4, 2 mM calcium chloride, 3 mM BAEE; geometric mean of multiple experiments. The essentials: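 Ammonia generated from BAEE serves as the readout, measured by o-phthalaldehyde after EDTA termination. Final conditions: 5 nM human PAD4 (SUMO tag cleaved), 2 mM CaCl2, 3 mM BAEE, pH 7.6 MOPS buffer, 25 °C for 2 h following a 30-min compound preincubation.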

Each structure is given as a SMILES string.

T1 sequence (Q9UM07 2-663): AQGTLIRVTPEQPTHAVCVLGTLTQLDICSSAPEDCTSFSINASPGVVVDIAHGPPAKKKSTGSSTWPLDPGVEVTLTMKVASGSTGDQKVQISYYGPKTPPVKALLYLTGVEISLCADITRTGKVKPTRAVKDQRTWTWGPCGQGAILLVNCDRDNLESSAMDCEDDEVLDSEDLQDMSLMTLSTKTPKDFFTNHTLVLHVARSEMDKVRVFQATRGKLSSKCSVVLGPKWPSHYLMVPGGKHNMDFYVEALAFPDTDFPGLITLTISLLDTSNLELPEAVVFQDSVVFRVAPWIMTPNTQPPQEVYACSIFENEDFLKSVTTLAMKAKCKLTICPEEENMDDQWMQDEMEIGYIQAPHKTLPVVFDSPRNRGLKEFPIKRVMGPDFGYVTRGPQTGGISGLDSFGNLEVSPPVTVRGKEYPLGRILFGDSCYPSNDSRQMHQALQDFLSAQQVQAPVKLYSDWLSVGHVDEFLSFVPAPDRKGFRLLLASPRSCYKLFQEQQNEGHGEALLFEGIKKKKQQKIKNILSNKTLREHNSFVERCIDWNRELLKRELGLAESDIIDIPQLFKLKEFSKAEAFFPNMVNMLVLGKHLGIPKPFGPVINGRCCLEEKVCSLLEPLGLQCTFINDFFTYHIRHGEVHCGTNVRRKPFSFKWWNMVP

In the case of `COc1cc(C(=O)N2[C@H]3CC[C@@H]2[C@H](N)C3)cc2nc(-c3cc4ccc(C5CCN(C(=O)C(C)(C)C)CC5)nc4n3CC3CC3)c(C)n12` [Example 526, 1-[4-[2-[7-[(1~{R},2~{R}, 4~{S})-2-amino-7-azabicyclo[2.2.1]heptane-7-carbonyl]-5-methoxy-3-methylimidazo[1,2-a]pyridin-2-yl]-1-(cyclopropylmethyl)pyrrolo [2,3-b]pyridin-6-yl]piperidin-1-yl]-2,2-dimethylpropan-1-one], the IC50 (commonly the midpoint of a concentration-inhibition curve) came to 458 nM.

For the compound `COc1cc(C(=O)N2[C@H]3CC[C@@H]2[C@H](N)C3)cc2nc(-c3cc4ccc(C5CCN(C(C)=O)CC5)nc4n3CC3CC3)c(C)n12` [Example 527, 1-[4-[2-[7-[(1~{R},2~{R}, 4~{S})-2-amino-7-azabicyclo[2.2.1]heptane-7-carbonyl]-5-methoxy-3-methylimidazo[1,2-a]pyridin-2-yl]-1-(cyclopropylmethyl)pyrrolo [2,3-b]pyridin-6-yl]piperidin-1-yl] ethenone], the IC50 amounted to 220 nM.

Regarding `COc1cc(C(=O)N2[C@H]3CC[C@@H]2[C@H](N)C3)cc2nc(-c3cc4ccc(C(C)CC(=O)N5CCCC5)nc4n3CC3CC3)c(C)n12` (stereo partly drawn) [Example 528, 3-[2-[7-[(1~{R},2~{R}, 4~{S})-2-amino-7-azabicyclo[2.2.1]heptane-7-carbonyl]-5-methoxy-3-methylimidazo[1,2-a]pyridin-2-yl]-1-(cyclopropylmethyl)pyrrolo [2,3-b]pyridin-6-yl]-1-pyrrolidin-1-ylbutan-1-one], the IC50 turned out to be 64.3 nM.

On to `COc1cc(C(=O)N2[C@H]3CC[C@@H]2[C@H](N)C3)cc2nc(-c3cc4ccc(C5CCN(C(=O)N6CCCC6)C5)nc4n3CC3CC3)c(C)n12` (stereo partly drawn) [Example 529, [(1~{R},2~{R},4~{S})-2-amino-7-azabicyclo [2.2.1]heptan-7-yl]-[2-[1-(cyclopropylmethyl)-6-[1-(pyrrolidine-1-carbonyl)pyrrolidin-3-yl]pyrrolo [2,3-b]pyridin-2-yl]-5-methoxy-3-methylimidazo [1,2-a]pyridin-7-yl] methanone], for which the IC50 came to 151 nM.

Turning to `COc1cc(C(=O)N2[C@H]3CC[C@@H]2[C@H](N)C3)cc2nc(-c3cc4ccc(C5CCN(C(=O)C(C)(C)C)C5)nc4n3CC3CC3)c(C)n12` (stereo partly drawn) [Example 530, 1-[3-[2-[7-[(1~{R},2~{R}, 4~{S})-2-amino-7-azabicyclo[2.2.1]heptane-7-carbonyl]-5-methoxy-3-methylimidazo[1,2-a]pyridin-2-yl]-1-(cyclopropylmethyl)pyrrolo [2,3-b]pyridin-6-yl]pyrrolidin-1-yl]-2,2-dimethylpropan-1-one], the IC50 came to 274 nM.

Consider `COc1cc(C(=O)N2[C@H]3CC[C@@H]2[C@H](N)C3)cc2nc(-c3cc4ccc(C5CCN(C(C)=O)C5)nc4n3CC3CC3)c(C)n12` (stereo partly drawn) [Example 531], for which the IC50 was 134 nM.

Consider `COc1cc(C(=O)N2CCC[C@@H](N)C2)cc2nc(-c3cc4ccc(CCC(=O)N(C)C)nc4n3CC3CC3)c(C)n12` [Example 532, 3-[2-[7-[(3~{R})-3-aminopiperidine-1-carbonyl]-5-methoxy-3-methylimidazo[1,2-a]pyridin-2-yl]-1-(cyclopropylmethyl)pyrrolo[2,3-b]pyridin-6-yl]-~{N},~{N}-dimethylpropanamide], for which the IC50 worked out at 1480 nM.

`COc1cc(C(=O)N2CCC[C@@H](N)C2)cc2nc(-c3cc4ccc(C5CC5C(=O)N(C)C)nc4n3CC3CC3)c(C)n12` (stereo partly drawn) [Example 533, 2-[2-[7-[(3~{R})-3-aminopiperidine-1-carbonyl]-5-methoxy-3-methylimidazo[1,2-a]pyridin-2-yl]-1-(cyclopropylmethyl)pyrrolo[2,3-b]pyridin-6-yl]-~{N},~{N}-dimethylcyclopropane-1-carboxamide]: the IC50 stood at 933 nM.

For `COc1cc(C(=O)N2CCC[C@@H](N)C2)cc2nc(-c3cc4ccc([C@H](C)CC(=O)N(C)C)nc4n3CC3CC3)c(C)n12` [Example 534, (3~{R})-3-[2-[7-[(3~{R})-3-aminopiperidine-1-carbonyl]-5-methoxy-3-methylimidazo[1,2-a]pyridin-2-yl]-1-(cyclopropylmethyl)pyrrolo[2,3-b]pyridin-6-yl]-~{N},~{N}-dimethylbutanamide], the IC50 came to 140 nM.

Regarding `COc1cc(C(=O)N2CCC[C@@H](N)C2)cc2nc(-c3cc4ccc([C@@H](C)CC(=O)N(C)C)nc4n3CC3CC3)c(C)n12` [Example 535, (3~{S})-3-[2-[7-[(3~{R})-3-aminopiperidine-1-carbonyl]-5-methoxy-3-methylimidazo[1,2-a]pyridin-2-yl]-1-(cyclopropylmethyl)pyrrolo [2,3-b]pyridin-6-yl]-~{N},~{N}-dimethylbutanamide], the IC50 worked out at 305 nM.

On to `COc1cc(C(=O)N2CCC[C@@H](N)C2)cc2nc(-c3cc4ccc(C(C)CC(=O)N(C)C)nc4n3CC3CC3)c(C)n12` (stereo partly drawn) [Example 536, 3-[2-[7-[(3~{R})-3-aminopiperidine-1-carbonyl]-5-methoxy-3-methylimidazo[1,2-a]pyridin-2-yl]-1-(cyclopropylmethyl)pyrrolo[2,3-b]pyridin-6-yl]-~{N},~{N}-dimethylbutanamide], for which the IC50 stood at 128 nM.

Take `COc1cc(C(=O)N2CCC[C@@H](N)C2)cc2nc(-c3cc4ccc(C(C)n5ccnn5)nc4n3CC3CC3)c(C)n12` (stereo partly drawn) [Example 537, [(3~{R})-3-aminopiperidin-1-yl]-[2-[1-(cyclopropylmethyl)-6-[1-(triazol-1-yl)ethyl]pyrrolo[2,3-b]pyridin-2-yl]-5-methoxy-3-methylimidazo[1,2-a]pyridin-7-yl]methanone]: the IC50 was 571 nM.

Consider `COc1cc(C(=O)N2[C@H]3CC[C@@H]2[C@H](N)C3)cc2nc(-c3cc4ccc(C(C)(C)CC(=O)N5CC(F)(F)C5)nc4n3CC3CC3)c(C)n12` [Example 538, 3-[2-[7-[(1~{R},2~{R}, 4~{S})-2-amino-7-azabicyclo[2.2.1]heptane-7-carbonyl]-5-methoxy-3-methylimidazo[1,2-a]pyridin-2-yl]-1-(cyclopropylmethyl)pyrrolo [2,3-b]pyridin-6-yl]-1-(3,3-difluoroazetidin-1-yl)-3-methylbutan-1-one], for which the IC50 came out at 175 nM.

On to `CNC(=O)CC(C)(C)c1ccc2cc(-c3nc4cc(C(=O)N5[C@H]6CC[C@@H]5[C@H](N)C6)cc(OC)n4c3C)n(CC3CC3)c2n1` [Example 539, 3-[2-[7-[(1~{R},2~{R}, 4~{S})-2-amino-7-azabicyclo[2.2.1]heptane-7-carbonyl]-5-methoxy-3-methylimidazo[1,2-a]pyridin-2-yl]-1-(cyclopropylmethyl)pyrrolo[2,3-b]pyridin-6-yl]-~{N},3-dimethylbutanamide], for which the IC50 amounted to 58.6 nM.

On to `CCC(CC(=O)N1CCCC1)c1ccc2cc(-c3nc4cc(C(=O)N5[C@H]6CC[C@@H]5[C@H](N)C6)cc(OC)n4c3C)n(CC3CC3)c2n1` (stereo partly drawn) [Example 540, 3-[2-[7-[(1~{R},2~{R}, 4~{S})-2-amino-7-azabicyclo[2.2.1]heptane-7-carbonyl]-5-methoxy-3-methylimidazo[1,2-a]pyridin-2-yl]-1-(cyclopropylmethyl)pyrrolo[2,3-b]pyridin-6-yl]-1-pyrrolidin-1-ylpentan-1-one], for which the IC50 was determined as 102 nM.

On to `CCCC(CC(=O)N1CCCC1)c1ccc2cc(-c3nc4cc(C(=O)N5[C@H]6CC[C@@H]5[C@H](N)C6)cc(OC)n4c3C)n(CC3CC3)c2n1` (stereo partly drawn) [Example 541, 3-[2-[7-[(1~{R},2~{R}, 4~{S})-2-amino-7-azabicyclo[2.2.1]heptane-7-carbonyl]-5-methoxy-3-methylimidazo[1,2-a]pyridin-2-yl]-1-(cyclopropylmethyl)pyrrolo [2,3-b]pyridin-6-yl]-1-pyrrolidin-1-ylhexan-1-one], for which the IC50 is 270 nM.

`COc1cc(C(=O)N2[C@H]3CC[C@@H]2[C@H](N)C3)cc2nc(-c3cc4ccc(C(CC(=O)N5CCCC5)C5CC5)nc4n3CC3CC3)c(C)n12` (stereo partly drawn) [Example 542, 3-[2-[7-[(1~{R},2~{R}, 4~{S})-2-amino-7-azabicyclo[2.2.1]heptane-7-carbonyl]-5-methoxy-3-methylimidazo[1,2-a]pyridin-2-yl]-1-(cyclopropylmethyl)pyrrolo[2,3-b]pyridin-6-yl]-3-cyclopropyl-1-pyrrolidin-1-ylpropan-1-one]: the IC50 worked out at 119 nM.

Regarding `COc1cc(C(=O)N2[C@H]3CC[C@@H]2[C@H](N)C3)cc2nc(-c3cc4ccc(C(C)CN5CCOCC5)nc4n3CC3CC3)c(C)n12` (stereo partly drawn) [Example 543, [(1~{R},2~{R},4~{S})-2-amino-7-azabicyclo [2.2.1]heptan-7-yl]-[2-[1-(cyclopropylmethyl)-6-(1-morpholin-4-ylpropan-2-yl)pyrrolo[2,3-b]pyridin-2-yl]-5-methoxy-3-methylimidazo [1,2-a]pyridin-7-yl] methanone], the IC50 amounted to 108 nM.

As to `COc1cc(C(=O)N2[C@H]3CC[C@@H]2[C@H](N)C3)cc2nc(-c3cc4ccc(C5CCCCN5C(=O)N5CCCC5)nc4n3CC3CC3)c(C)n12` (stereo partly drawn) [Example 544, [(1~{R},2~{R},4~{S})-2-amino-7-azabicyclo [2.2.1]heptan-7-yl]-[2-[1-(cyclopropylmethyl)-6-[1-(pyrrolidine-1-carbonyl)piperidin-2-yl]pyrrolo [2,3-b]pyridin-2-yl]-5-methoxy-3-methylimidazo [1,2-a]pyridin-7-yl] methanone], the IC50 was determined as 361 nM.

As for `COc1cc(C(=O)N2[C@H]3CC[C@@H]2[C@H](N)C3)cc2nc(-c3cc4ccc(C(C)C(N)=O)nc4n3CC3CC3)c(C)n12` (stereo partly drawn) [Example 545], the IC50 was found to be 81.8 nM.

As for `COc1cc(C(=O)N2[C@H]3CC[C@@H]2[C@H](N)C3)cc2nc(-c3cc4ccc(C(C)n5cncn5)nc4n3CC3CC3)c(C)n12` (stereo partly drawn) [Example 546, [(1~{R},2~{R},4~{S})-2-amino-7-azabicyclo [2.2.1]heptan-7-yl]-[2-[1-(cyclopropylmethyl)-6-[1-(1,2,4-triazol-1-yl)ethyl]pyrrolo[2,3-b]pyridin-2-yl]-5-methoxy-3-methylimidazo[1,2-a]pyridin-7-yl]methanone], the IC50 worked out at 156 nM.
